The results in this text go back to patent US12578273B2, “Ph-reversible leuco-BODIPY probe for in situ visualization of extracellular vesicles and their secretion from living cells” (The Chinese University of Hong Kong, priority 2021, dated 2026).

The nature of this data set: pH-dependent spectroscopic properties (pH titration, absorption and fluorescence). Format: physicochemical. The protocol:
In each step of pH titration, small volumes (2-10 μL) of HCl at appropriate concentrations (0.1, 10^−2, or 10^−3 M) were pipetted directly into the measurement cell, followed by filling up with 2 mL of 1 μM dye-containing solution [either in a mixture of PBS/ethanol 1:1 (v/v) or 0.5% (v/v) DMSO]. The pH was monitored at 298 K using a digital pH meter (827 pH lab) equipped with a Biotrode (Metrohm, Herisau, Switzerland). Calibration of the instrument was performed with standard aqueous solutions of pH 4, 7, and 9 from Metrohm. Absorption and fluorescence measurements were carried out on an Agilent Cary 5000 spectrophotometer and a Horiba Jobin Yvon spectrometer (Nanolog FL3-2iHR), respectively.
We investigated the spectroscopic properties of the fluorescent probe as a function of pH in phosphate-buffered saline (PBS) containing 50% ethanol by UV-vis spectrophotometry and fluorimetry (FIGS. 21A-21F, 22-23).

Where [1] appears, read: pH range of 3-11, C2H5OH/PBS (1:1, v/v).

Regarding `CCOC(=O)C(=CC1=[N+]2C(=C(c3ccncc3)c3ccc(C=C(C(=O)OCC)C(=O)OCC)n3[B-]2(F)F)C=C1)C(=O)OCC` [BODIPY], the “onset of the fluorescence peak at 618 nm (pH)” value (PBS containing 50% ethanol) was “about 7.4”. The same compound displayed a red emission peak (PBS containing 50% ethanol) of 618 nm. Under “acidic conditions (pH of about 4), PBS containing 50% ethanol”, the “longest wavelength absorption band” value stood at 602 nm. Also, the “increase in emission at 618 nm” value reads like this: (pH drops from 7.4 to 5.5) “about 15 fold”; (pH drops from 7.4 to 6.5) 8 fold; (pH drops from 7.4 to 7.0) “about 3 fold”. Where the note is “reappearance of the absorption bands at 602 nm on reacidification with HCl, PBS containing 50% ethanol”, the “pKa (corrected pKa)” value was found to be 5.28±0.05.
In the case of `CN(C)CCNC(=O)CCc1ccc2n1[B-](F)(F)[N+]1=C(c3ccc[nH]3)C=CC1=C2` [LysoTracker™ Red, reference compound], under setting [1], the “absorbance as a function of pH” value was “near-constant” and the “fluorescence as a function of pH” value is “always-on”.
